Experiments:
soybean tissues [1] = experiment: miRNA expression profiling of miR1512 and miR3522 in soybean tissues; conditions: for relative expression level, 3 mm seed: soybean 3 mm seed; for relative expression level, Cotyledons: soybean cotyledons; for relative expression level, Embryo axis: soybean embryo axis; for relative expression level, Flower: soybean flower; for relative expression level, Pods from 5 mm seeds: soybean pods from 5 mm seeds; for relative expression level, Root tip: soybean root tip; for relative expression level, Seed coat: soybean seed coat; for relative expression level, Stem: soybean stem
Procedure: Small RNA Library Construction and Sequencing: Small RNA library construction was carried out using Illumina's TruSeq Small RNA sample preparation kit according to the manufacturer's recommendations. Briefly, RNA 3′ and RNA 5′ adapters were sequentially ligated onto 1 μg of high-quality purified Small RNA sample using truncated T4 RNA Ligase 2 and T4 RNA Ligase respectively. The small RNA fragments were then copied into first strand cDNA using SuperScript II reverse transcriptase. The cDNA was converted into double stranded cDNA (ds cDNA) with PCR using two primers that respectively anneal to the ends of 3′ and 5′ adapters. This process selectively enriches those fragments that have adapter molecules on both ends. The amplified cDNA construct is then purified on a 6% PAGE gel, normalized to 2 nM concentration, denatured with sodium hydroxide, and diluted in hybridization buffer for loading onto a Hiseq flow cell. Cluster generation, primer hybridization and sequencing reactions were carried out according to Illumina's recommended protocol.
Given the variation in expression among different soybean tissues, miR1512 and miR3522 recognition sites were selected to exemplify tissue-specific transgene expression modulation in a dicot plant.
Table 1. miRNA microarray expression profiling of miR1512 and miR3522 in soybean tissues. Numbers represent relative expression levels.

soybean tissues [2] = experiment: as above; conditions: for relative expression level, 5 mm seed: soybean 5 mm seed; for relative expression level, Hypocotyl: soybean hypocotyl; for relative expression level, Leaf: soybean leaf; for relative expression level, Pod: soybean pod; for relative expression level, Root: soybean root

## miR1512: endogenous soybean micro-RNA, exemplary miR1512 RNA UAACUGAACAUUCUUAGAGCAU (expressed or natural sequence)
Soybean tissues [1]
  relative expression level, 3 mm seed: 10427
  relative expression level, Cotyledons: 70
  relative expression level, Embryo axis: 20
  relative expression level, Flower: 79
  relative expression level, Pods from 5 mm seeds: 23938
  relative expression level, Root tip: 3118
  relative expression level, Seed coat: 13532
  relative expression level, Stem: 15
Soybean tissues [2]; leaves and other vegetative tissue
  miRNA expression (in words): very low expression
Soybean tissues [2]; root
  miRNA expression (in words): medium expression
Soybean tissues [2]; seed and seed coat
  miRNA expression (in words): high levels
Soybean tissues [2]
  relative expression level, 5 mm seed: 183
  relative expression level, Hypocotyl: 0
  relative expression level, Leaf: 0
  relative expression level, Pod: 1854
  relative expression level, Root: 0

## miR3522: endogenous soybean micro-RNA, exemplary miR3522 RNA UGAGACCAAAUGAGCAGCUGA (expressed or natural sequence)
Soybean tissues [1]
  relative expression level, 3 mm seed: 8958
  relative expression level, Cotyledons: 26265
  relative expression level, Embryo axis: 3200
  relative expression level, Flower: 18509
  relative expression level, Pods from 5 mm seeds: 1351
  relative expression level, Root tip: 649
  relative expression level, Seed coat: 2551
  relative expression level, Stem: 3180
Soybean tissues [2]; all tissues examined except the root tissue
  miRNA expression (in words): high or medium levels
Soybean tissues [2]
  relative expression level, 5 mm seed: 30139
  relative expression level, Hypocotyl: 1310
  relative expression level, Leaf: 15350
  relative expression level, Pod: 405
  relative expression level, Root: 399

From patent US12421522B2, “Modulation of transgene expression in plants” (CORTEVA AGRISCIENCE LLC, priority 2016, dated 2025)
